{"source": "paper PMC3747596", "about": "(PLoS ONE, 2013)", "key": {"[1]": {"system": "nociceptin/orphanin FQ receptor (NOP)", "set-up": "method as in PMID 11510482", "conditions": "at 10 µM; cited from earlier work"}, "[2]": {"system": "glucocorticoid receptor NR3C1", "set-up": "method as in PMID 10875228", "conditions": "at 10 µM; cited from earlier work"}, "[3]": {"molecular_target": "N-methyl-D-aspartate (NMDA) receptor", "set-up": "method as in PMID 7681005", "conditions": "[3H]CGP-39,653, glutamate site; cited from earlier work"}, "[4]": {"molecular_target": "nociceptin/orphanin FQ receptor (NOP)", "set-up": "method as in PMID 8943250", "conditions": "cited from earlier work"}, "[5]": {"molecular_target": "T1, α1A-AR (Homo sapiens, UniProt P35348)", "T1 sequence (P35348 1-466)": "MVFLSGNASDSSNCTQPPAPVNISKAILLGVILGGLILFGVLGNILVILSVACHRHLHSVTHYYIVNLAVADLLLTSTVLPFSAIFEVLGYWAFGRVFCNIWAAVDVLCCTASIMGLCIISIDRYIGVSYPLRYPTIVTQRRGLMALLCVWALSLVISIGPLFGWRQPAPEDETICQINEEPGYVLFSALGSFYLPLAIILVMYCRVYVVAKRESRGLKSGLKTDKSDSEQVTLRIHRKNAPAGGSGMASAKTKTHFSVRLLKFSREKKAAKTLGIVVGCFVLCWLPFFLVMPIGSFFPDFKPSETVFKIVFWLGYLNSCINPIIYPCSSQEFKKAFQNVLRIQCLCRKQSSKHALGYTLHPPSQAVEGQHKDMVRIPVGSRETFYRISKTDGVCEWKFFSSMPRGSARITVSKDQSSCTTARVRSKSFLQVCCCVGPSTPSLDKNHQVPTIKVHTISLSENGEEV", "assay": "Intracellular calcium mobilization assay, α1A-AR"}, "[6]": {"molecular_target": "T2, M1-R (Homo sapiens, UniProt P11229)", "T2 sequence (P11229 whole entry)": "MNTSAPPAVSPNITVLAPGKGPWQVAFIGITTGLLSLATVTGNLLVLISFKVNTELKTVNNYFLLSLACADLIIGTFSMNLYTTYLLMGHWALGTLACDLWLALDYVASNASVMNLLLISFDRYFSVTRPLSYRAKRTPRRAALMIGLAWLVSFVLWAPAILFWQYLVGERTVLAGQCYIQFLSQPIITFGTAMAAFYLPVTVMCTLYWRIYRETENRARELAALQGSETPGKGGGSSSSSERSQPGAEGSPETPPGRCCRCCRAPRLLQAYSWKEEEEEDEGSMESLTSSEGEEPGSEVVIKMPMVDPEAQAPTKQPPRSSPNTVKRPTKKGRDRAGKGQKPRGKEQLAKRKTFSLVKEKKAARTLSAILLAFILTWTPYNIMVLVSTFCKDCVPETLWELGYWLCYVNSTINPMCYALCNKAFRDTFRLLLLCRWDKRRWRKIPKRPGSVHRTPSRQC"}, "[7]": {"molecular_target": "T3, μ opioid receptor (Homo sapiens, UniProt P35372)", "T3 construct": "expressed in transfected cells", "T3 sequence (P35372 whole entry)": "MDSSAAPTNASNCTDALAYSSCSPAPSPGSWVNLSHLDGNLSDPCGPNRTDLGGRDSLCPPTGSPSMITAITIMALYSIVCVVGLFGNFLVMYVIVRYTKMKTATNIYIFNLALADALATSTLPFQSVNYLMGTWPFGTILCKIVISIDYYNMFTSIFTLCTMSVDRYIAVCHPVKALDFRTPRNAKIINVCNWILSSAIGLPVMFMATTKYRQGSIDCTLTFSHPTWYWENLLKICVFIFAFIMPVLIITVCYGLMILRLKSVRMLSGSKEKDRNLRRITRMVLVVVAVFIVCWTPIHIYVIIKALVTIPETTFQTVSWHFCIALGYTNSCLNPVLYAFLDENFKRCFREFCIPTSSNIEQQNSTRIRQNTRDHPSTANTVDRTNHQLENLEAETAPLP", "assay": "Radioligand displacement, μ", "type": "binding"}, "[8]": {"molecular_target": "non-opioid receptors and transporters", "assay": "Radioligand displacement panel, non-opioid targets", "conditions": "read-out: K i for all non-opioid targets; 43 non-opioid targets"}, "[9]": {"molecular_target": "T2, M1-R", "set-up": "method as in ref 9 = [9]; 9 Inan S (2010) Pharmacological and neuroanatomical analysis of GNTI-induced repetitive behavior in mice [Ph.D. thesis Thesis]. Philadelphia, PA: Temple University. Available: http://digital.library.t", "conditions": "at 1 µM; [3H]N-methylscopolamine; cited from earlier work"}, "[10]": {"molecular_target": "T4, δ opioid receptor (Homo sapiens, UniProt P41143)", "T4 construct": "expressed in transfected cells", "T4 sequence (P41143 whole entry)": "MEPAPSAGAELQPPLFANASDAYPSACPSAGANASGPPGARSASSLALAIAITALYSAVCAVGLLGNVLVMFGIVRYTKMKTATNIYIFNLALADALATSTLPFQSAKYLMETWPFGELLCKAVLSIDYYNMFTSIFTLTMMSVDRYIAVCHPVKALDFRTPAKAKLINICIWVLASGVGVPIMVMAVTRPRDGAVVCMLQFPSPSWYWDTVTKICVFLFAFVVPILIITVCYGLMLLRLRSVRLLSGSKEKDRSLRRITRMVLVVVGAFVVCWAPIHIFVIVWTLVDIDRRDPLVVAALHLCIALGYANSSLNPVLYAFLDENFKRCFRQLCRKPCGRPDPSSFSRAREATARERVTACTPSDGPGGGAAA", "assay": "Radioligand displacement, δ", "type": "binding", "conditions": "K i, radioligand displacement (Table 1)"}, "[11]": {"molecular_target": "T5, human NOP (Homo sapiens, UniProt P41146)", "T5 construct": "expressed in transfected cells; host or cells: HEK293T", "T5 sequence (P41146 whole entry)": "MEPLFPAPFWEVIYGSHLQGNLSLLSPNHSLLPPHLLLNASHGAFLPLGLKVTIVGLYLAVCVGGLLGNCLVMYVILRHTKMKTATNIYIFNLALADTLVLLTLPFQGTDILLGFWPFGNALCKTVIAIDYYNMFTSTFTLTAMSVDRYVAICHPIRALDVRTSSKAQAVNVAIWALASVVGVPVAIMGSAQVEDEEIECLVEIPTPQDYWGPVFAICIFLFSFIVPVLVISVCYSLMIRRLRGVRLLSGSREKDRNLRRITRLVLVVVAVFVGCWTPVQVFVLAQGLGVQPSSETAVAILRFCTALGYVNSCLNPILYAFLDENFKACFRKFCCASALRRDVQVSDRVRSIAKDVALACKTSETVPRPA", "assay": "Inhibition of cyclic AMP production by N/OFQ, GloSensor assay in HEK293T cells", "type": "cell-based"}}}
{"smiles": "Oc1ccc2c3c1O[C@H]1c4[nH]c5c(c4C[C@@]4(O)[C@@H](C2)N(CC2CC2)CC[C@]314)C[C@@]1(O)[C@H]2Cc3ccc(O)c4c3[C@@]1(CCN2CC1CC1)[C@H]5O4", "note": "[nor-BNI, Nor-binaltorphimine]", "values": [{"measurement": "binding to NOP", "setting": "[1]", "value": "no binding"}, {"measurement": "binding to glucocorticoid receptor NR3C1", "setting": "[2]", "value": "No binding was detected"}, {"measurement": "Ki", "setting": "[3]", "value": "> 1000", "unit": "nM"}, {"measurement": "Ki", "setting": "[4]", "value": 780, "unit": "nM"}]}
{"smiles": "N=C(N)Nc1ccc2[nH]c3c(c2c1)C[C@@]1(O)[C@H]2Cc4ccc(O)c5c4[C@@]1(CCN2CC1CC1)[C@H]3O5", "note": "[GNTI, 5′-guanidinonaltrindole]", "values": [{"measurement": "EC50", "setting": "[5]", "value": 41, "unit": "nM"}, {"measurement": "activation of α1A-AR / inhibition of activation by noradrenaline", "setting": "[5]; calcium mobilization, GNTI 30 µM", "value": "neither activated α1A-AR nor inhibited activation by noradrenaline"}, {"measurement": "Emax", "setting": "[5]; read-out: increase of the maximal response to noradrenaline", "value": "≤ 20", "unit": "%"}, {"measurement": "K B", "setting": "[6]; antagonism of acetylcholine, calcium mobilization, 95% CI = 3.2 to 4.3 µM", "value": 3.7, "unit": "µM"}, {"measurement": "activation of M1-R", "setting": "[6]; calcium mobilization", "value": "did not activate M1-R"}, {"measurement": "selectivity for κ-OR over M1-R", "setting": "[6]; functional potency at κ-OR (ref 3) versus K B at M1-R", "value": "> 3,000 fold"}, {"measurement": "Ki", "setting": "[7]", "value": 54, "unit": "nM"}, {"measurement": "Ki", "setting": "[8]", "value": "> 2000", "unit": "nM"}, {"measurement": "displacement from M1-R", "setting": "[9]", "value": 52, "unit": "%"}, {"measurement": "Ki", "setting": "[10]", "value": 58, "unit": "nM"}]}
{"smiles": "CC(C)[C@@H](CN1CC[C@@](C)(c2cccc(O)c2)[C@@H](C)C1)NC(=O)[C@H]1Cc2ccc(O)cc2CN1", "note": "[JDTic]", "values": [{"measurement": "K B equivalent to the pA2 for a competitive antagonist", "setting": "[11]; 95% CI = 4.6 to 1,200 nM", "value": 73, "unit": "nM"}, {"measurement": "effect on maximally-effective concentrations of N/OFQ (>100 nM)", "setting": "[11]; JDTic 30 µM", "value": "not affected"}, {"measurement": "Kb", "setting": "[11]; antagonism of N/OFQ, inhibition of cyclic AMP production, read-out: pA2 (converted)", "value": 79.4, "unit": "nM"}]}
